Results reported in US8008074B2, “Compositions and methods for improving bone mass through modulation of receptors of PTH and fragments thereof” (The UAB Research Foundation, priority 2006, dated 2011).

Tests used:
MPK1, RANKL and OPG mRNA = experiment: Real-Time PCR of PTH target genes in bone tissue of injected rats; assay type: in vivo, rat; details: rats injected with PTH (PTH (1-34))
Source text: Immunohistochemical staining of representative sections with antibody against β-catenin at 10× objective and 40× objective counterstained with hematoxylin from either primary spongliosa subjacent to the epiphyseal growth plates or Spongiosa subjacent to diaphyseal hematopoietic bone marrow of different time points after PTH single injection in rats. […] Each value is the mean±SEM of determinations in three independent slides of each animal and three animals of each group. Panels B and C show graphs of the expression of MPK1 mRNA and the ratio of RANKL/OPG as quantified by real-time PCR in cavaria tissue from the same animals. […] Panel D is a graph showing the numbers of β-catenin-positive osteoblasts as a percent of total osteoblasts per field that were determined. […]
It has been reported that intermittent PTH treatment targeted proliferating cells in the primary spongiosa of young rat distal femur metaphysis, resulting in an increased number of osteoblasts (Oniya, 1995, Bone). […] Quantitation of MPK1, RANKL, OPG, and GAPDH with specific primers was performed using a DNA Engine Opticon continuous fluorescence detection system (MJ Research, Logan, Utah) with SYBR Green I as the method of detection. […] Briefly, quantitative PCR was performed in a total reaction volume of 20 μl per […]. […]

TGFβRII = target: T1, TGFβRII (Homo sapiens, UniProt P37173+Q03431); experiment: TGFβRII internalization in HEK293-PTH1R cells; assay type: cell-based; details: stimulated with PTH for 30 minutes; 90% before stimulation
T1 construct: expressed in transfected cells; host or cells: HEK293-PTH1R (HEK293 stably expressing HA-PTH1R)
T1 sequence (P37173 23-567): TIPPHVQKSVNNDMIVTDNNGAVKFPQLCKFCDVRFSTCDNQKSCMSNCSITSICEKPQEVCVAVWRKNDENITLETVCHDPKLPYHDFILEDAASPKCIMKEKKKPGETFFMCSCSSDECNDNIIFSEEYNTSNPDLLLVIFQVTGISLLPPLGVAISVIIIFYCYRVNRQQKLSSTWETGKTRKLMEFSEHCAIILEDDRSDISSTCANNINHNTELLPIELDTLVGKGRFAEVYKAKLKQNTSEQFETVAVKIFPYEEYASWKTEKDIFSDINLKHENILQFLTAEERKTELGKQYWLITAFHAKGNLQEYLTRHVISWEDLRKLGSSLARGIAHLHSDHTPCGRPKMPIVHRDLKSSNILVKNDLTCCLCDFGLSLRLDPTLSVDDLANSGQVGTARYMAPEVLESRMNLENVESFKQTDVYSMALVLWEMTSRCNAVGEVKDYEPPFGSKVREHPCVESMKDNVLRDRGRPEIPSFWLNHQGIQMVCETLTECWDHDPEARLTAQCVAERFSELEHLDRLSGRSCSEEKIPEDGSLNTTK
T1 sequence (Q03431 27-593): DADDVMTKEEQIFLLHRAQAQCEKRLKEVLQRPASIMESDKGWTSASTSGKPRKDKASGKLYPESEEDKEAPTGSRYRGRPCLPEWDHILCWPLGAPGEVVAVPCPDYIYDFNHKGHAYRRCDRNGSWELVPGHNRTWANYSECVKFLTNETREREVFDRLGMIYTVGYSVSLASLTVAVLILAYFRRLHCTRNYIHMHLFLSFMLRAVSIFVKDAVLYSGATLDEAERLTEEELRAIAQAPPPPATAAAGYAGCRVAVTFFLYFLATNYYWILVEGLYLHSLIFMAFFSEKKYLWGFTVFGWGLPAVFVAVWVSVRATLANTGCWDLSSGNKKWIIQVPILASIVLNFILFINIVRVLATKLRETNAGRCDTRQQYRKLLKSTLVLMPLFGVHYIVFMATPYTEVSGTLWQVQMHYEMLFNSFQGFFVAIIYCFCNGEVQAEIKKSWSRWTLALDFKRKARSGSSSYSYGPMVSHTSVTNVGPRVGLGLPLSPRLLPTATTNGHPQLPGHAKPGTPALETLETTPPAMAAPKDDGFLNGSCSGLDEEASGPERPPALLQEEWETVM
Protocol: TGFβRII tagged with Flag epitope was expressed in HEK293 cells that were expressing PTH1R or not, and the transfected cells were treated with PTH or control.
In particular, TGFβ1 treatment increases the number of cell membrane PTH1R. Therefore, the potential functional relationship of PTH with TGFβRII was examined. TGFβRII tagged with Flag epitope was transiently expressed in embryonic kidney 293 (HEK293) cells or HEK293 cells stably expressing PTH1R with HA (HEK293-PTH1R). In the absence of PTH, TGFβRII was present predominantly at the cell surface, with a few puncta in the cytosol (data not shown). […] To visualize the effect of PTH to the TβRII, a red fluorescent PTH (1-34) was synthesized in which the TMR fluorophore was attached to the side chain of the lysine residue at position 13 in PTH (1-34) (PTH^TMR).
To quantitate these observations, the cells were fixed at various time points and classified as three types: (1) TGFβRII is dominantly present at the cell surface, (2) TGFβRII locates to both the cell surface and vesicles in the cytosol, and (3) TGFβRII mainly localizes to the cytosol as vesicles. Before stimulation with PTH, TGFβRII was present at the cell surface in 90% of the cells. […] From 10 to 30 minutes after stimulation with PTH (1-34), cell-surface TβRII levels were reduced, indicative of receptor clearance from the cell surface membrane (FIG. 10B). […]

LRP5/Axin binding = experiment: Axin-LRP5 binding immunoprecipitation; assay type: cell-based; details: significantly induced at 30 minutes; data not shown
Source text: If the observation is true, then the phosphorylated PPPSP motif will serve as an Axin docking site.
GSK3β is involved in PTH-stimulated LRP6 phosphorylation at its PPPSP motifs. However, the phosphorylation of LRP5 by PTH was very strong and seems GSK3β-unrelated. Since LRP6N, the extracellular domain with transmembrane region, functions as dominant-negative, we examined whether it inhibits PTH-induced Axin binding with LRP5/6.

TGFβ/Smad signaling = TGFβ/Smad signaling after PTH pretreatment; assay type: cell-based
Protocol: Panel B is a graph showing the decrease in activity from the SBE-luciferase reporter in the presence of PTH and PTH1R.
It has been reported that TGFβ-induced endocytosis of TGFβ/TβRII is mediated by Sara endosome. The response of TβRII to PTH was analyzed to determine whether it is the same as to TGFβ. […] The observation was confirmed by TGFβ-induced interaction between Smad2 and Smad4.

## PTH: Parathyroid hormone ligand, form not stated at the place; figure legends give PTH (1-84) or PTH (1-34)
MPK1, RANKL and OPG mRNA
  MPK1 mRNA expression: stimulated MPK1 mRNA expression
  ratio of RANKL/OPG: increased
TGFβRII
  cells exhibiting cell-surface localization of TGFβRII: less than 10%
LRP5/Axin binding
  binding of Axin to LRP5: induced binding of Axin to LRP5
TGFβ/Smad signaling; C2C12 cells pretreated with PTH
  phosphorylation of Smad2 by TGFβ after PTH pretreatment: largely inhibited
TGFβ/Smad signaling; cells expressing PTH1R
  inhibition by PTH1R of TGFβ activation of SBE luciferase reporter: enhanced the inhibition
TGFβ/Smad signaling; pretreatment with PTH
  TGFβ-induced interaction between Smad2 and Smad4: inhibits the interaction
